These results are taken from ChEMBL document CHEMBL1177707 (J Med Chem, 2010).

For assay [1], the target named is Inosine-5'-monophosphate dehydrogenase 1 (Homo sapiens, UniProt P20839). The assay can be described thus: Inhibition of human IMPDH1.
The target of assay [2] is Inosine-5'-monophosphate dehydrogenase 2 (Homo sapiens, UniProt P12268). The assay can be described thus: Inhibition of human IMPDH2.
The nature of assay [3]: Inhibition of N-terminal His-tagged Mycobacterium tuberculosis H37Rv IMPDH. The following applies: read-out: Ki(app).

Chain of Inosine-5'-monophosphate dehydrogenase 1 (P20839 whole entry): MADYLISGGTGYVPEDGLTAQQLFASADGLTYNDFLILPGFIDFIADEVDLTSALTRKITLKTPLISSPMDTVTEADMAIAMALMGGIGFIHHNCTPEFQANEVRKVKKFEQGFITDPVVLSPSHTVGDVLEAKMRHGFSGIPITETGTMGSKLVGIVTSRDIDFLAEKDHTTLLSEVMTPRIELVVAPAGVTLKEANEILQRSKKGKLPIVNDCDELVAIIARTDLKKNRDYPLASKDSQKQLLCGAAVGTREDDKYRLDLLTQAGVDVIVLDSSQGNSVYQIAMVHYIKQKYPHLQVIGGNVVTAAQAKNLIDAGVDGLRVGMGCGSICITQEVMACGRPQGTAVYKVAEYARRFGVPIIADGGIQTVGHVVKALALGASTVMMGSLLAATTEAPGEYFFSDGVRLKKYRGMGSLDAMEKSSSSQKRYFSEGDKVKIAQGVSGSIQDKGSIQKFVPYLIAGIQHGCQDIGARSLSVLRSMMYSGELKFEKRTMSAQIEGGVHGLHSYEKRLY

Consider `COc1c(C)c2c(c(O)c1C/C=C(\C)COP(=O)(O)CP(=O)(O)OC[C@H]1O[C@@H](n3cnc4c(N)ncnc43)[C@H](O)[C@@H]1O)C(=O)OC2`, for which the Ki was 520 nM in assay [1] (read-out: Ki(app)), 380 nM in assay [2] (read-out: Ki(app)) and greater than 100 µM in assay [3]. In the case of `COc1c(C)c2c(c(O)c1CCNCc1cn(C[C@H]3O[C@@H](n4cnc5c(N)ncnc54)[C@H](O)[C@@H]3O)nn1)C(=O)OC2`, the Ki is 14000 nM in assay [1] (read-out: Ki), 2200 nM in assay [2] (read-out: Ki) and greater than 100 µM in assay [3]. For the compound `COc1c(C)c2c(c(O)c1CCn1cc(COC[C@H]3O[C@@H](n4cnc5c(N)ncnc54)[C@H](O)[C@@H]3O)nn1)C(=O)OC2`, the values for the Ki in assay [1] (read-out: Ki), in assay [2] (read-out: Ki) and in assay [3] were 1500 nM, 200 nM and greater than 100 µM, respectively. For `COc1c(C)c2c(c(O)c1C/C=C(\C)Cn1cc(COC[C@H]3O[C@@H](n4cnc5c(N)ncnc54)[C@H](O)[C@@H]3O)nn1)C(=O)OC2`, the Ki in assay [1] (read-out: Ki) worked out at 70 nM. As to `C#Cc1nc(N)c2ncn([C@@H]3O[C@H](CNS(=O)(=O)CS(=O)(=O)NCCc4c(O)c5c(c(C)c4OC)COC5=O)[C@@H](O)[C@H]3O)c2n1`, in assay [3], the Ki is greater than 100 µM. Still for that read-out and setting: in the case of `COc1c(C)c2c(c(O)c1CCOP(=O)(O)CP(=O)(O)OC[C@H]1O[C@@H](n3cnc4c(N)nc(-c5ccccc5)nc43)[C@H](O)[C@@H]1O)C(=O)OC2` it was greater than 100 µM; in that of `CCc1nc(N)c2ncn([C@@H]3O[C@H](CNS(=O)(=O)CS(=O)(=O)NCCc4c(O)c5c(c(C)c4OC)COC5=O)[C@@H](O)[C@H]3O)c2n1`, greater than 100 µM. Consider `COc1c(C)c2c(c(O)c1CCNS(=O)(=O)CS(=O)(=O)NC[C@H]1O[C@@H](n3cnc4c(N)nc(-c5ccccc5)nc43)[C@H](O)[C@@H]1O)C(=O)OC2`, for which the Ki in assay [3] was greater than 100 µM. In the case of `COc1c(C)c2c(c(O)c1C/C=C(\C)CCC(=O)O)C(=O)OC2` [MYCOPHENOLIC ACID], in assay [3], the Ki is 62 µM.
